From ChEMBL document CHEMBL5241112, “Insights into the recent progress in the medicinal chemistry of pyranopyrimidine analogs” (RSC Med Chem, 2022)
Converted amounts (≈) assume the structure as drawn.

How the values were obtained:
Vibrio cholerae = experiment: Antibacterial activity against Vibrio cholerae MTCC 3906 assessed as bacterial growth inhibition by broth microdilution method; assay type: functional
Plasmodium falciparum = experiment: microbe, parasite or virus in culture
[1] = system: Mycobacterium tuberculosis; experiment: Antitubercular activity against Mycobacterium tuberculosis H37Rv assessed as bacterial growth inhibition at 250 ug/ml; assay type: functional
[2] = system: Mycobacterium tuberculosis; experiment: Antitubercular activity against Mycobacterium tuberculosis H37Rv assessed as bacterial growth inhibition at 100 ug/ml; assay type: functional
Clostridium tetani = experiment: Antibacterial activity against Clostridium tetani MTCC 449 assessed as bacterial growth inhibition by broth microdilution method; assay type: functional
Aspergillus fumigatus [3] = experiment: Antifungal activity against Aspergillus fumigatus MTCC 227 assessed as fungal growth inhibition by broth microdilution method; assay type: functional
Escherichia coli = experiment: Antibacterial activity against Escherichia coli MTCC 739 assessed as bacterial growth inhibition; assay type: functional
Staphylococcus aureus [4] = experiment: Antibacterial activity against Staphylococcus aureus MTCC 96 assessed as minimum bactericidal concentration; assay type: functional
Raoultella planticola = experiment: Antibacterial activity against Raoultella planticola MTCC 530 assessed as bacterial growth inhibition; assay type: functional; conditions: Klebsiella planticola
Micrococcus luteus = experiment: Antibacterial activity against Micrococcus luteus MTCC 2470 assessed as bacterial growth inhibition; assay type: functional
Staphylococcus aureus [5] = experiment: Antibacterial activity against Staphylococcus aureus MLS-16 MTCC 2940 assessed as bacterial growth inhibition; assay type: functional
Bacillus subtilis [6] = experiment: Antibacterial activity against Bacillus subtilis MTCC 121 assessed as minimum bactericidal concentration; assay type: functional
Bacillus subtilis [7] = experiment: Antibacterial activity against Bacillus subtilis MTCC 121 assessed as bacterial growth inhibition; assay type: functional
Pseudomonas aeruginosa = experiment: Antibacterial activity against Pseudomonas aeruginosa MTCC 2453 assessed as bacterial growth inhibition; assay type: functional
Staphylococcus aureus [8] = experiment: Antibacterial activity against Staphylococcus aureus MLS-16 MTCC 2940 assessed as minimum bactericidal concentration; assay type: functional
DNA = experiment: Binding affinity to DNA (unknown origin) assessed as DNA intercalation; assay type: nucleic-acid assay
DNA topoisomerase II = DNA topoisomerase II (Homo sapiens, UniProt P11388+Q02880); experiment: Inhibition of DNA topoisomerase 2 (unknown origin); assay type: protein assay
HCT-116 = experiment: cells; conditions: Homo sapiens
HepG2 = experiment: Anticancer activity against human HepG2 cells assessed as reduction in cell viability; assay type: functional, cell-based
Bacillus subtilis [9] = experiment: Antibacterial activity against Bacillus subtilis ATCC 6633 assessed as inhibition of bacterial growth incubated for 24 hrs by broth macrodilution method; assay type: functional
Bacillus subtilis [10] = experiment: Antibacterial activity against Bacillus subtilis ATCC 6633 assessed as diameter of inhibition zone incubated for 24 hrs by disc diffusion assay; assay type: functional
MCF7 = experiment: Anticancer activity against human MCF7 cells assessed as reduction in cell viability; assay type: functional, cell-based
Staphylococcus aureus [11] = experiment: Antibacterial activity against Staphylococcus aureus ATCC 25923 assessed as diameter of inhibition zone incubated for 24 hrs by disc diffusion assay; assay type: functional
Staphylococcus aureus [12] = experiment: Antibacterial activity against Staphylococcus aureus ATCC 25923 assessed as inhibition of bacterial growth incubated for 24 hrs by broth macrodilution method; assay type: functional
Aspergillus niger [13] = experiment: Antifungal activity against Aspergillus niger ATCC 6275 assessed as diameter of inhibition zone incubated for 7 days by disc diffusion assay; assay type: functional; conditions: time 7 day
Aspergillus niger [14] = experiment: Antifungal activity against Aspergillus niger ATCC 6275 assessed as inhibition of […] growth incubated for 7 days by broth macrodilution method; assay type: functional; conditions: ATCC 6275, 168 h, time 7 day
Aspergillus fumigatus [15] = experiment: microbe, parasite or virus in culture; assay type: functional; conditions: ATCC204305, dose 50 mg/ml, time 24 hrs, read-out: DIZ
Staphylococcus aureus [16] = experiment: Antibacterial activity against Staphylococcus aureus ATCC6538-P assessed as diameter of inhibition zone at 50 mg/ml incubated for 24 hrs by paper disk diffusion method; assay type: functional; conditions: read-out: DIZ
Streptococcus pneumoniae [17] = experiment: Antibacterial activity against Streptococcus pneumoniae ATCC BAA-255/R6 assessed as inhibition of bacterial growth incubated for 24 hrs by disk diffusion method; assay type: functional
Streptococcus pneumoniae [18] = experiment: Antibacterial activity against Streptococcus pneumoniae ATCC BAA-255/R6 assessed as diameter of inhibition zone at 50 mg/ml incubated for 24 hrs by paper disk diffusion method; assay type: functional; conditions: read-out: DIZ
[19] = Inhibition of Escherichia coli topoisomerase 4 assessed as reduction in decatenation
Alpha-glucosidase = Alpha-glucosidase (Saccharomyces cerevisiae S288c, UniProt P53341+P38158+P07265); experiment: Inhibition of Saccharomyces cerevisiae alpha-glucosidase assessed as decrease in release of p-nitrophenol using pNPG as substrate incubated for 10 mins by spectroscopic analysis; assay type: protein assay
[20] = biological target: Alpha-glucosidase (Mus musculus); experiment: Inhibition of mouse alpha-glucosidase assessed as decrease in release of p-nitrophenol using pNPG as substrate preincubated for 10 mins followed by substrate addition and measured after 30 mins by spectroscopic analysis
[21] = Cytotoxicity against human MT4 cells assessed as reduction in cell viability by MTT assay; assay type: toxicity, cell-based
[22] = system: Human immunodeficiency virus 2; experiment: Antiviral activity against HIV2 ROD infected in human MT4 cells assessed as reduction in virus-induced cytopathic effect by MTT assay; assay type: functional, organism-based; conditions: Human immunodeficiency virus 2, ROD
[23] = Selectivity index, ratio of CC50 for cytotoxicity against human MT4 cells to EC50 for antiviral activity against HIV1 IIIB infected in human MT4 cells; assay type: toxicity, cell-based; conditions: read-out: Selectivity Index
[24] = system: Human immunodeficiency virus 1; experiment: Antiviral activity against HIV1 IIIB infected in human MT4 cells assessed as reduction in virus-induced cytopathic effect by MTT assay; assay type: functional, organism-based; conditions: Human immunodeficiency virus 1, IIIB
[25] = Selectivity index, ratio of CC50 for cytotoxicity against human MT4 cells to EC50 for antiviral activity against HIV2 ROD infected in human MT4 cells; assay type: toxicity, cell-based; conditions: read-out: Selectivity Index
Salmonella typhimurium = experiment: Antibacterial activity against Salmonella typhimurium MTCC 98 assessed as bacterial growth inhibition by broth microdilution method; assay type: functional, Salmonella enterica subsp. enterica serovar Typhimurium; conditions: Salmonella enterica
Serratia marcescens [26] = experiment: Antibacterial activity against Serratia marcescens IMRU-70 assessed as diameter of inhibition zone incubated for 24 hrs by disc diffusion method; assay type: functional
Bacillus cereus = experiment: Antibacterial activity against Bacillus cereus ATCC-14579 assessed as diameter of inhibition zone incubated for 24 hrs by disc diffusion method; assay type: functional
Staphylococcus aureus [27] = experiment: Antibacterial activity against Staphylococcus aureus assessed as inhibition of bacterial growth; assay type: functional
Serratia marcescens [28] = experiment: Antibacterial activity against Serratia marcescens assessed as diameter of inhibition zone by disc diffusion method; assay type: functional
Staphylococcus aureus [29] = experiment: Antibacterial activity against Staphylococcus aureus NCTC-7447 assessed as diameter of inhibition zone incubated for 24 hrs by disc diffusion method; assay type: functional
Proteus mirabilis = experiment: Antibacterial activity against Proteus mirabilis NTCC-289 assessed as diameter of inhibition zone incubated for 24 hrs by disc diffusion method; assay type: functional

Work on `Cc1nn(-c2ccccc2)c(-n2ccnc2)c1C1C(C#N)=C(N)Oc2[nH]c(=O)[nH]c(=O)c21` (stereo not drawn) yielded an MIC (Vibrio cholerae) of 662 µg/mL (≈ 1550 µM), an IC50 (Plasmodium falciparum) of 0.97 µg/mL (≈ 2.26 µM) and an inhibition at 250 µg/mL [1] of 95%. It also gave an inhibition at 100 µg/mL [2] of 92%, an MIC (Clostridium tetani) of 100 µg/mL (≈ 233 µM) and an MIC (Aspergillus fumigatus [3]) of 200 µg/mL (≈ 467 µM).

Work on `Cc1ccc(C2c3c(Nc4cccc([N+](=O)[O-])c4)ncnc3Oc3c2c(=O)oc2ccccc32)cc1` (stereo not drawn) yielded an MIC (Escherichia coli) of 15.6 µg/mL (≈ 32.6 µM), an MBC (Staphylococcus aureus [4]) of 15.6 µg/mL (≈ 32.6 µM) and an MIC (Raoultella planticola) of 15.6 µg/mL (≈ 32.6 µM). It also gave an MIC (Micrococcus luteus) of 15.6 µg/mL (≈ 32.6 µM), an MIC (Staphylococcus aureus [5]) of 15.6 µg/mL (≈ 32.6 µM) and an MBC (Bacillus subtilis [6]) of 15.6 µg/mL (≈ 32.6 µM). It also gave an MIC (Bacillus subtilis [7]) of 31.2 µg/mL (≈ 65.2 µM), an MIC (Pseudomonas aeruginosa) of 15.6 µg/mL (≈ 32.6 µM) and an MBC (Staphylococcus aureus [8]) of 15.6 µg/mL (≈ 32.6 µM).

`CCC(C)n1cnc2c(c1=N)C(c1ccc(OC)cc1)c1c([nH]c(=O)[nH]c1=O)O2` (stereo not drawn) showed an IC50 (DNA) of 27000 nM, an IC50 (DNA topoisomerase II) of 752 nM and an IC50 (HCT-116) of 2610 nM. For the same compound, the IC50 (HepG2) was 2090 nM, the MIC (Bacillus subtilis [9]) was 0.097 µg/mL (≈ 0.245 µM) and the “diameter of the inhibition zone (DIZ)” value (Bacillus subtilis [10]) was 26 mm. The IC50 (MCF7) was 2430 nM, the “diameter of the inhibition zone (DIZ)” value (Staphylococcus aureus [11]) was 20.8 mm and the MIC (Staphylococcus aureus [12]) was 1.56 µg/mL (≈ 3.95 µM).

For `C[C@@H]1[C@H](O)[C@@H](C)/C=C/C=C/C=C/C=C/C=C/C=C/C=C/[C@H](O[C@@H]2O[C@H](C)[C@@H](O)[C@H](N)[C@@H]2O)C[C@@H]2O[C@](O)(C[C@@H](O)C[C@@H](O)[C@H](O)CC[C@@H](O)C[C@@H](O)CC(=O)O[C@H]1C)C[C@H](O)[C@H]2C(=O)O` [AMPHOTERICIN B], the “diameter of the inhibition zone (DIZ)” value (Aspergillus niger [13]) was 26.3 mm and the MIC (Aspergillus niger [14]) was 0.781 µg/mL (≈ 0.845 µM).

For `Nc1nc(=O)[nH]c2c1C(c1ccc(Cl)cc1)C=C(c1cc3ccccc3oc1=O)O2` (stereo not drawn), the zone of inhibition at 50000 µg/mL (Aspergillus fumigatus [15]) was 10 mm, the zone of inhibition at 50000 µg/mL (Staphylococcus aureus [16]) was 18 mm and the MIC (Streptococcus pneumoniae [17]) was 7.8 µg/mL (≈ 18.6 µM). For the same compound, the zone of inhibition at 50000 µg/mL (Streptococcus pneumoniae [18]) was 10 mm and the IC50 [19] was 237 nM.

Compound `COc1cc(/C=C/C(=O)C2=C(/C=C/c3ccc(O)c(OC)c3)Oc3[nH]c(=O)[nH]c(=O)c3C2c2c(Cl)cccc2Cl)ccc1O` (stereo not drawn) has an IC50 (Alpha-glucosidase) of 27600 nM and an IC50 [20] of 46040 nM.

Work on `N=c1c2c(ncn1N)Oc1c(c(=O)oc3ccccc13)C2c1cccc2ccccc12` (stereo not drawn) yielded a CC50 [21] of 4.84 µg/mL (≈ 11.9 µM), an EC50 [22] of 4.84 µg/mL (≈ 11.9 µM) and a selectivity ratio [23] of under 1. For the same compound, the EC50 [24] was 4.84 µg/mL (≈ 11.9 µM) and the selectivity ratio [25] was under 1.

For `Cc1nc2c(c(=O)[nH]1)C(c1cccc3ccccc13)c1c(c3ccccc3oc1=O)O2` (stereo not drawn), the CC50 [21] was 3.63 µg/mL (≈ 8.89 µM), the EC50 [22] was 3.63 µg/mL (≈ 8.89 µM) and the selectivity ratio [23] was under 1. The EC50 [24] was 3.63 µg/mL (≈ 8.89 µM) and the selectivity ratio [25] was under 1.

For `CC1(C)S[C@@H]2[C@H](NC(=O)[C@H](N)c3ccccc3)C(=O)N2[C@H]1C(=O)O` [AMPICILLIN], the MIC (Salmonella typhimurium) was 100 µg/mL (≈ 286 µM), the MIC (Vibrio cholerae) was 100 µg/mL (≈ 286 µM) and the “diameter of the inhibition zone (DIZ)” value (Serratia marcescens [26]) was 25 mm. The “diameter of the inhibition zone (DIZ)” value (Bacillus cereus) was 25 mm, the MIC (Staphylococcus aureus [27]) was 250 µg/mL (≈ 715 µM) and the “diameter of the inhibition zone (DIZ)” value (Serratia marcescens [28]) was 25 mm. The MIC (Bacillus subtilis [9]) was 0.45 µg/mL (≈ 1.29 µM), the “diameter of the inhibition zone (DIZ)” value (Bacillus subtilis [10]) was 32.4 mm and the “diameter of the inhibition zone (DIZ)” value (Staphylococcus aureus [29]) was 25 mm. For the same compound, the “diameter of the inhibition zone (DIZ)” value (Proteus mirabilis) was 25 mm.
